The source of these data is patent US8323917B2, “Method of screening for compounds that inhibit the enzymatic activity of GWT1 gene product” (priority 2002, dated 2012).

Assay [1] addresses T1, GWT1 gene product (Gwt1 protein) in membrane fraction (Saccharomyces cerevisiae, UniProt P47026).
T1 construct: made in house; host or cells: S. cerevisiae Δgwt1 strain carrying the YEp352GAPIIClaIΔSal-GWT1 overexpression plasmid; total membrane fraction
Put plainly: acylated GPI detection system (GPI acylation assay, TLC of GlcN-(acyl)PI). The settings on record: UDP-[14C]GlcNAc, TLC/autoradiography, FIGS. 3 and 4. The format is biochemical, S. cerevisiae. As to the method: Wild-type S. cerevisiae strain, the GWT1 gene-deficient strain Δgwt1, and the strain Δgwt1 into which the GWT1 overexpression plasmid was introduced were each cultured in 100 ml of YPD medium shaken at 24° C., and then harvested in the middle logarithmic growth phase (0D600=1˜3). The fungal cells were washed with TM buffer (50 mM Tris-HCl (pH 7.5) and 2 mM MgCl2), and then suspended in 2 ml of TM buffer+protease inhibitor (1 tablet of Complete™, protease inhibitor, (Roche)/25 ml). 1.5 ml of glass beads was added to the suspension. The mixture was vortexed for 30 seconds, and then placed on ice for 30 seconds. These procedures were repeated ten times to disrupt the fungal cells. The cell homogenate was transferred into a new tube, and centrifuged at 1000 g at 4° C. for five minutes to precipitate the glass beads and undisrupted fungal cells. The supernatant was transferred to another tube, and centrifuged at 13 000g at 4° C. for 20 minutes to precipitate the membrane fraction comprising organelles (total membrane fraction). The resulting precipitate was used as the membrane fraction.
The membrane fraction preparation (300 μg protein) was diluted with a buffer consisting of 50 mM Tris-HCl (pH7.5), 2 mM MgCl2, 2 mM MnCl2, 1 mM ATP, 1 mM Coenzyme A, 21 μg/ml tunicamycin, 10 μM nikkomycin Z, and 0.5 mM Dithiothreitol. The solution was adjusted to a total of 140 μl for use as a reaction solution. After incubating the solution at 24° C. for 15 minutes, 15 μCi UDP-[^14C]GlcNAc was added to the tube and then incubated at 24° C. for another one hour. 1 ml of chloroform:methanol (1:2) was added to the solution and stirred to stop the reaction. Then, lipid was extracted from the solution, dried, and desalted by butanol extraction. Acylated GPI (GlcN-(acyl)PI), non-acylated GPI (GlcN-PI), and GPI which was neither acylated nor deacylated (GlcNAc-PI) were separated by thin-layer chromatography (HCl3/CH3OH/1 M NH4OH (10:10:3)). Each spot was detected by autoradiography. […]

A further assay concerns GWT1 gene products. The note with it: reporter system reflecting the activity of the GWT1 gene products; cited from earlier work.

Structures are written as SMILES.

T1 sequence (P47026 whole entry): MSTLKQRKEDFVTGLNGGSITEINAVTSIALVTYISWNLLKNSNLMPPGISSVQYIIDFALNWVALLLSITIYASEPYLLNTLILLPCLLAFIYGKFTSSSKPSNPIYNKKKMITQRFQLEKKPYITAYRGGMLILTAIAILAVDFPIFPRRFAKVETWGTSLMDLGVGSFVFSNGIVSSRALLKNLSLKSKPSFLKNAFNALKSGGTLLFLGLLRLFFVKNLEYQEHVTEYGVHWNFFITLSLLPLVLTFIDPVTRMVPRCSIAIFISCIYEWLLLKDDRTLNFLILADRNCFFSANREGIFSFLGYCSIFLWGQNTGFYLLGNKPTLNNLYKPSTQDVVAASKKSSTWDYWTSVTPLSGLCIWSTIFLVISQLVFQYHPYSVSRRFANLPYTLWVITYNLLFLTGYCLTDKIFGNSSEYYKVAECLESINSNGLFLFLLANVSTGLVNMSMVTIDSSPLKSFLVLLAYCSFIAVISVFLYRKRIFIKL

With `CCCCc1ccc(Cc2nccc3ccccc23)cc1` [Example B2, 1-(4-butylbenzyl)isoquinoline], the “spot intensity of acylated GPI (GlcN-(acyl)PI)” value (“spot intensity of acylated GPI” below) in assay [1] is reported as “dose-dependent decrease”.

For the compound `CC(=O)N(C)CCCc1ccc(Cc2nccc3ccccc23)cc1` [Example B73, N-(3-(4-(1-isoquinolylmethyl)phenyl)propyl)-N-methylacetamide], in assay [1], the “spot intensity of acylated GPI” value is given as “not observed to decrease”. The “inhibitory activity IC50 (Table 1 in WO 02/04626)” value with GWT1 gene products was 50 µg/mL.

As to `CCCCc1ccc(Cc2nccc3ccccc23)c(O)c1` [Example B85, 5-butyl-2-(1-isoquinolylmethyl)phenol], in assay [1], the “spot intensity of acylated GPI” value is reported as “dose-dependent decrease”.
